Calls of active or inactive are those of the source. The rule behind the calls is not given here.
Tested on: CCRIS mutagenicity, Ames/micronucleus/aberration tests
Assay: CCRIS mutagenicity studies
[1] = Test System: AMES SALMONELLA TYPHIMURIUM, Strain/Indicator: TA98, Metabolic Activation: NONE, Method: PREINCUBATION
[2] = Test System: AMES SALMONELLA TYPHIMURIUM, Strain/Indicator: TA98, Metabolic Activation: RAT, LIVER, S-9, AROCLOR 1254, Method: STANDARD PLATE
[3] = Test System: AMES SALMONELLA TYPHIMURIUM, Strain/Indicator: TA100, Metabolic Activation: NONE, Method: PREINCUBATION
[4] = Test System: AMES SALMONELLA TYPHIMURIUM, Strain/Indicator: TA100, Metabolic Activation: RAT, LIVER, S-9, AROCLOR 1254, Method: STANDARD PLATE
[5] = Test System: AMES SALMONELLA TYPHIMURIUM, Strain/Indicator: TA98, Metabolic Activation: NONE, Method: STANDARD PLATE
[6] = Test System: AMES SALMONELLA TYPHIMURIUM, Strain/Indicator: TA100, Metabolic Activation: NONE, Method: STANDARD PLATE
[7] = Test System: AMES SALMONELLA TYPHIMURIUM, Strain/Indicator: TA1535, Metabolic Activation: NONE, Method: STANDARD PLATE
[8] = Test System: AMES SALMONELLA TYPHIMURIUM, Strain/Indicator: TA1537, Metabolic Activation: NONE, Method: STANDARD PLATE

## CCCCN(N=O)C(=O)OCC
Test System: AMES SALMONELLA TYPHIMURIUM, Strain/Indicator: TA98, Metabolic Activation: RAT, LIVER, S-9, KC500 OR PHENOBARBITAL, Method: LIQUID SUSPENSION
  mutagenic call: active; positive
Test System: AMES SALMONELLA TYPHIMURIUM, Strain/Indicator: TA100, Metabolic Activation: RAT, LIVER, S-9, KC500 OR PHENOBARBITAL, Method: LIQUID SUSPENSION
  mutagenic call: active; positive

## Nc1cccc(-c2ccccc2)c1
[1]
  mutagenic call: inactive; negative
Test System: AMES SALMONELLA TYPHIMURIUM, Strain/Indicator: TA98, Metabolic Activation: RAT LIVER S-9, AROCLOR 1254, Method: PREINCUBATION
  mutagenic call: inactive; negative
Test System: AMES SALMONELLA TYPHIMURIUM, Strain/Indicator: TA98, Metabolic Activation: RAT, LIVER, S-9, AROCLOR 1254 (4%), Method: STANDARD PLATE
  mutagenic call: active; positive
[2]
  mutagenic call: inactive; negative
[3]
  mutagenic call: inactive; negative
Test System: AMES SALMONELLA TYPHIMURIUM, Strain/Indicator: TA100, Metabolic Activation: RAT LIVER S-9, AROCLOR 1254, Method: PREINCUBATION
  mutagenic call: inactive; negative
[4]
  mutagenic call: inactive; negative

## Cc1ccc(N=Nc2c(O)c(C(=O)O)cc3ccccc23)cc1S(=O)(=O)O
[5]
  mutagenic call: inactive; negative
Test System: AMES SALMONELLA TYPHIMURIUM, Strain/Indicator: TA98, Metabolic Activation: RAT, LIVER, S-9, Method: STANDARD PLATE
  mutagenic call: inactive; negative
[6]
  mutagenic call: inactive; negative
Test System: AMES SALMONELLA TYPHIMURIUM, Strain/Indicator: TA100, Metabolic Activation: RAT, LIVER, S-9, Method: STANDARD PLATE
  mutagenic call: inactive; negative

## [CH]#[W]
End Point: IN VITRO MICRONUCLEUS, Test System: HUMAN LYMPHOCYTES, Metabolic Activation: NONE
  mutagenic call: active; positive

## CCc1ccnc2ccccc12
Test System: AMES SALMONELLA TYPHIMURIUM, Strain/Indicator: TA100, Metabolic Activation: RAT, LIVER, S-9, Method: PREINCUBATION
  mutagenic call: inactive; negative

## Nc1nc(NO)c2ncn([C@@H]3O[C@H](CO)[C@@H](O)[C@H]3O)c2n1
Test System: AMES SALMONELLA TYPHIMURIUM, Strain/Indicator: TA100(TN5-1,8-DNP1011), Metabolic Activation: NONE, Method: STANDARD PLATE
  mutagenic call: active; positive
Test System: AMES SALMONELLA TYPHIMURIUM, Strain/Indicator: TA100(TN5-1,8-DNP1012), Metabolic Activation: NONE, Method: STANDARD PLATE
  mutagenic call: active; positive
[6]
  mutagenic call: active; positive

## CC(=O)O[C@H]1[C@H](OC23C=C(C)C4(CC4)C(C)(O)C2C(=O)C(C)(C)C3)O[C@H](CO)[C@@H](OC(=O)/C=C/c2ccc(O)cc2)[C@@H]1O (stereo not given in full)
[1]
  mutagenic call: active; positive
[3]
  mutagenic call: active; positive

## Oc1cccc2c1ccc1c3c4c(cccc4cc12)C=C3
[5]
  mutagenic call: inactive; negative
Test System: AMES SALMONELLA TYPHIMURIUM, Strain/Indicator: TA98, Metabolic Activation: RAT, LIVER, S-9, AROCLOR 1254 (0, 0.4, 0.8, 1.15 OR 1.5 MG/PLATE), Method: STANDARD PLATE
  mutagenic call: active; positive

## O=NN(c1ccc([N+](=O)[O-])cc1)C1OC[C@@H](O)[C@H](O)[C@H]1O (stereo not given in full)
[6]
  mutagenic call: active; positive

## O=c1c(Cl)c(Cl)cnn1S(=O)(=O)c1ccc([N+](=O)[O-])cc1
[5]
  mutagenic call: active; positive
[2]
  mutagenic call: inactive; negative
[6]
  mutagenic call: active; positive
[4]
  mutagenic call: active; positive
[7]
  mutagenic call: inactive; negative
Test System: AMES SALMONELLA TYPHIMURIUM, Strain/Indicator: TA1535, Metabolic Activation: RAT, LIVER, S-9, AROCLOR 1254, Method: STANDARD PLATE
  mutagenic call: active; positive
[8]
  mutagenic call: inactive; negative
Test System: AMES SALMONELLA TYPHIMURIUM, Strain/Indicator: TA1537, Metabolic Activation: RAT, LIVER, S-9, AROCLOR 1254, Method: STANDARD PLATE
  mutagenic call: inactive; negative

## CCCN(CO)N=O
Test System: CHINESE HAMSTER V-79, Strain/Indicator: V-79/OUABAIN, Metabolic Activation: NONE
  mutagenic call: active; positive

## CN(C)N=Nc1ccc([N+](=O)[O-])cc1
Test System: AMES SALMONELLA TYPHIMURIUM, Strain/Indicator: TA92, Metabolic Activation: MOUSE, LIVER, S-9, POLYCHLORINATED BIPHENYLS, Method: PREINCUBATION
  mutagenic call: active; positive
Test System: AMES SALMONELLA TYPHIMURIUM, Strain/Indicator: TA92, Metabolic Activation: MOUSE, LIVER, S-9, POLYCHLORINATED BIPHENYLS, Method: STANDARD PLATE
  mutagenic call: active; positive
Test System: AMES SALMONELLA TYPHIMURIUM, Strain/Indicator: TA92, Metabolic Activation: NONE, Method: STANDARD PLATE
  mutagenic call: active; positive
Test System: AMES SALMONELLA TYPHIMURIUM, Strain/Indicator: TA97, Metabolic Activation: MOUSE, LIVER, S-9, POLYCHLORINATED BIPHENYLS, Method: PREINCUBATION
  mutagenic call: active; positive
Test System: AMES SALMONELLA TYPHIMURIUM, Strain/Indicator: TA97, Metabolic Activation: MOUSE, LIVER, S-9, POLYCHLORINATED BIPHENYLS, Method: STANDARD PLATE
  mutagenic call: active; positive
Test System: AMES SALMONELLA TYPHIMURIUM, Strain/Indicator: TA97, Metabolic Activation: NONE, Method: STANDARD PLATE
  mutagenic call: active; positive
Test System: AMES SALMONELLA TYPHIMURIUM, Strain/Indicator: TA98, Metabolic Activation: MOUSE, LIVER, S-9, POLYCHLORINATED BIPHENYLS, Method: PREINCUBATION
  mutagenic call: active; positive
Test System: AMES SALMONELLA TYPHIMURIUM, Strain/Indicator: TA98, Metabolic Activation: MOUSE, LIVER, S-9, POLYCHLORINATED BIPHENYLS, Method: STANDARD PLATE
  mutagenic call: active; positive
[5]
  mutagenic call: active; positive
Test System: AMES SALMONELLA TYPHIMURIUM, Strain/Indicator: TA100, Metabolic Activation: MOUSE, LIVER, S-9, POLYCHLORINATED BIPHENYLS, Method: PREINCUBATION
  mutagenic call: active; positive
Test System: AMES SALMONELLA TYPHIMURIUM, Strain/Indicator: TA100, Metabolic Activation: MOUSE, LIVER, S-9, POLYCHLORINATED BIPHENYLS, Method: STANDARD PLATE
  mutagenic call: active; positive
[6]
  mutagenic call: active; positive
Test System: AMES SALMONELLA TYPHIMURIUM, Strain/Indicator: TA1535, Metabolic Activation: MOUSE, LIVER, S-9, POLYCHLORINATED BIPHENYLS, Method: PREINCUBATION
  mutagenic call: active; positive
Test System: AMES SALMONELLA TYPHIMURIUM, Strain/Indicator: TA1535, Metabolic Activation: MOUSE, LIVER, S-9, POLYCHLORINATED BIPHENYLS, Method: STANDARD PLATE
  mutagenic call: active; positive
[7]
  mutagenic call: active; positive
Test System: AMES SALMONELLA TYPHIMURIUM, Strain/Indicator: TA1537, Metabolic Activation: MOUSE, LIVER, S-9, POLYCHLORINATED BIPHENYLS, Method: PREINCUBATION
  mutagenic call: active; positive
Test System: AMES SALMONELLA TYPHIMURIUM, Strain/Indicator: TA1537, Metabolic Activation: MOUSE, LIVER, S-9, POLYCHLORINATED BIPHENYLS, Method: STANDARD PLATE
  mutagenic call: active; positive
[8]
  mutagenic call: active; positive
Test System: AMES SALMONELLA TYPHIMURIUM, Strain/Indicator: TA1538, Metabolic Activation: MOUSE, LIVER, S-9, POLYCHLORINATED BIPHENYLS, Method: PREINCUBATION
  mutagenic call: active; positive
Test System: AMES SALMONELLA TYPHIMURIUM, Strain/Indicator: TA1538, Metabolic Activation: MOUSE, LIVER, S-9, POLYCHLORINATED BIPHENYLS, Method: STANDARD PLATE
  mutagenic call: active; positive
Test System: AMES SALMONELLA TYPHIMURIUM, Strain/Indicator: TA1538, Metabolic Activation: NONE, Method: STANDARD PLATE
  mutagenic call: active; positive

## Cc1c(C)c2c3c(ccc2c2ccccc12)[C@@H](O)[C@H](O)[C@@H]1O[C@H]31
[6]
  mutagenic call: active; positive

## O=C1OCC(C(Cl)Cl)=C1Cl
[5]
  mutagenic call: inactive; negative
[2]
  mutagenic call: inactive; negative
Test System: AMES SALMONELLA TYPHIMURIUM, Strain/Indicator: TA102, Metabolic Activation: NONE, Method: STANDARD PLATE
  mutagenic call: active; positive
Test System: AMES SALMONELLA TYPHIMURIUM, Strain/Indicator: TA102, Metabolic Activation: RAT, LIVER, S-9, AROCLOR 1254, Method: STANDARD PLATE
  mutagenic call: inactive; negative

## CNC(=O)N(C)C(=O)ON
[5]
  mutagenic call: active; positive
[6]
  mutagenic call: active; positive
